Reference: patent US20150250714A1, “PHARMACEUTICAL COMPOSITIONS AND DELIVERY DEVICES COMPRISING STINGING CELLS OR CAPSULES” (NANOCYTE (ISRAEL) LTD., priority 2010, published 2015)
Read-outs that look alike come from different tables or passages of the source.

Columns and labels:
[1] = topical 400 mg
Description: Cnidocysts were isolated from the filament acontia of Aiptasia diaphana based on their high density and high stability in salts as described previously (1, 2) (FIGS. 1A-C). Briefly, filaments were incubated in 1M sodium citrate, followed by two centrifugations in 70% percoll gradients. The isolated cnidocysts were washed with decreasing concentrations of NaCl (1M to 0.2M) and freeze-dried. The purified cnidocysts were kept dry until use, or formulated in an anhydrous gel consisting of 2% hydroxyl propyl cellulose in absolute ethanol.
The study included 3 dosing sessions as detailed in Table 3 below.

[2] = oral; cited from earlier work

Structure (SMILES)	Cumulative Value (CV) % of atropine concentrations, Topical ([1]; Time 0.17)	Cumulative Value (CV) % of atropine concentrations, Topical ([1]; Time 0.25)	Cumulative Value (CV) % of atropine concentrations, Topical ([1]; Time 0.5)	Cumulative Value (CV) % of atropine concentrations, Topical ([1]; Time 0.75)	Cumulative Value (CV) % of atropine concentrations, Topical ([1]; Time 1)	Cumulative Value (CV) % of atropine concentrations, Topical ([1]; Time 2)	Cumulative Value (CV) % of atropine concentrations, Topical ([1]; Time 4)	Cumulative Value (CV) % of atropine concentrations, Topical ([1]; Time 12)	Cumulative Value (CV) % of atropine concentrations, Topical ([1]; Time 24)	fraction absorbed when taken orally [2]
CN1[C@@H]2CC[C@H]1C[C@@H](OC(=O)C(CO)c1ccccc1)C2 (mixture of isomers) [atropine, Atropine]	43.6%	76.9%	42.5%	148.9%	103.7%	98.9%	113.2%	96.4%	144.3%	
NCCCC(O)(P(=O)(O)O)P(=O)(O)O [sodium alendronate]										0.64%
